Data: US10316038B2, “Pyrrolopyrimidine ITK inhibitors for treating inflammation and cancer” (ACLARIS THERAPEUTICS, INC., priority 2017, dated 2019)

Assays:
ITK = target: T1, ITK (Homo sapiens, UniProt Q08881); experiment: ITK inhibitor binding potency (LanthaScreen competitive binding assay); details: TR-FRET competitive binding, 10 nM ITK, 50 nM kinase tracer-236; pre-incubation condition not given; read-out: ITK Inhibition IC50
T1 sequence (Q08881 1-620): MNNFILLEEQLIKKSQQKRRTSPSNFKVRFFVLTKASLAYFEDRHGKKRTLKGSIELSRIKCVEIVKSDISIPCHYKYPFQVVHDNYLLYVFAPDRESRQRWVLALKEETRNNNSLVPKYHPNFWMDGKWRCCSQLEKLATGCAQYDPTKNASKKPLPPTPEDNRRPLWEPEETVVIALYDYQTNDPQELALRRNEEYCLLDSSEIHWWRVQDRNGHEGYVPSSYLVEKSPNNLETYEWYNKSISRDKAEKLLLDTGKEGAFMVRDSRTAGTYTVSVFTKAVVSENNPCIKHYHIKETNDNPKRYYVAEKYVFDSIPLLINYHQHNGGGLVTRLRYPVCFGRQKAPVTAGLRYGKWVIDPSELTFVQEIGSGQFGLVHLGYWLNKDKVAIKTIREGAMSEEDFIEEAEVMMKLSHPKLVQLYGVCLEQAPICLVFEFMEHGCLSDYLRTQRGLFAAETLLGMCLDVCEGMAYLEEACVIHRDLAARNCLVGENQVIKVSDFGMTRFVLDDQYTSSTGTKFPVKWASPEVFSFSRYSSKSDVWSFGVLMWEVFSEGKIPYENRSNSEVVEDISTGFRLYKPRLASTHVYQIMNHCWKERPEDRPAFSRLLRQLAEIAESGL
Source text: The ability of candidate compounds to interact with ITK is quantitated by a competitive binding assay using the LanthaScreen technology developed by Life Technologies. This assay is based on the binding of a proprietary, Alexa Fluor™ 647-labeled, ATP-competitive kinase inhibitor (kinase tracer-236) to the ITK expression construct in the presence of a Europium-conjugated antibody, resulting in a FRET (fluorescence resonance energy transfer) signal. Displacement of the kinase tracer by compound results in a lower emission ratio upon excitation of the Europium chelate. Candidate compounds are designed as potential irreversible inhibitors of ITK, capable of ligating to an active site cysteine residue resulting in time dependent covalent binding. The time dependent nature of irreversible inhibition is investigated by performing the binding assay with and without a pre-incubation of compound and ITK. […] The inhibitory potency of candidate compounds is measured in 20 mM HEPES pH 7.5, 10 mM MgCl2, 0.01% BSA, 0.0005% Tween-20, and 2% DMSO in the presence of 10 nM ITK, 2 nM Eu-anti-GST antibody, and 50 nM kinase tracer-236 using a 384-well plate format. Background signal is defined in the absence of ITK and uninhibited signal is defined in the presence of vehicle (2% DMSO) alone. Compounds were evaluated in an 11 point dose-response ranging from 20 uM to 0.34 nM. The binding assays are performed under two preincubation conditions to evaluate time dependence of inhibition. For the pre-incubation assay, ITK and Eu-anti-GST antibody are pre-incubated with compound or vehicle for two hours prior to the addition of kinase tracer. The non-preincubated assay is run under conditions where ITK and Eu-anti-GST antibody are added to a mixture of compound and kinase tracer. IC50 values of compounds are determined using a 4 parameter logistical fit of emission ratio as a function of the concentration of compound.

[1] = test system: ITK phosphorylation of its substrate, PLCγ1, at Y783; experiment: ITK target modulation assay (phospho-Y783 PLCγ1 immunoblot in Jurkat T cells); assay type: cell-based; details: Homo sapiens, Jurkat, 2 h, 2 hours compound, CD3/CD28 Dynabeads stimulation 100 sec, anti-phospho-Y783 PLCγ1 immunoblot, read-out: PLC-γ Inhibition IC50
Protocol: Target modulation was based upon the ability of a compound to inhibit ITK phosphorylation of its substrate, PLCγ1, at […]. Human Jurkat T cells were placed in snap-cap polypropylene tubes at 4 million per tube in 800 μL medium (RPMI1640 with 10% heat inactivated serum and […] 2-mercaptoethanol and supplemented with glutamine/penicillin/streptomycin). Compounds were added as 100 μL of 10× working stock solutions in medium with 1% DMSO (or medium with 1% DMSO for controls) and placed in a 37° C. incubator for 2 hours. Stimulation was carried out using CD3/CD28 Dynabeads to activate the T cell receptor and mimic antigen presenting cells. Beads were added for 100 sec at a ratio of 1 bead per cell, in 100 μL medium (or medium alone for unstimulated control). Starting at 70 sec, cells and beads were pelleted in a microfuge for 15 sec, the supernatant aspirated, and 50 μL lysis buffer was added per tube and mixed with the pellet at the 100 sec time point. Tubes were placed on a rotator for 30 min at 4° C., and cell debris was pelleted in a microfuge. Supernatant was mixed 1:1 with 2× Sample Buffer and subjected to SDS-polyacrylamide gel electrophoresis. After transfer to nitrocellulose, immunoblotting was done with anti-phospho-[…] PLCγ1 antibody. Immunoblots were visualized with ECL using horseradish peroxidase conjugated secondary antibody.

Row | IC50 (ITK) [nM] | IC50 [1] [nM] | Structure (SMILES)
1 | ≤ 100 | 1000 to 5000 | C=CC(=O)Nc1cc(-c2cnc3[nH]cc(-c4cccc(C#N)c4)c3c2)cnc1OC1CCOC1 (stereo not drawn) [Example 5, N-(5-(3-(3-Cyanophenyl)-1H-pyrrolo[2,3-b]pyridin-5-yl)-2-((tetrahydrofuran-3-yl)oxy)pyridin-3-yl)acrylamide]
2 | ≤ 100 | ≤ 1000 | CN(C)C/C=C/C(=O)Nc1cc(-c2cnc3[nH]cc(-c4ccnc(F)c4)c3c2)cc(C(F)(F)F)c1 [Example 32, (E)-4-(dimethyl-amino)-N-(3-(3-(2-fluoropyridin-4-yl)-1H-pyrrolo-[2,3-b]pyridin-5-yl)-5-(trifluoro-methyl)phenyl)-but-2-enamide]
3 | ≤ 100 | ≤ 1000 | COc1cc(NC(=O)/C=C/CN(C)C)cc(-c2cnc3[nH]cc(-c4ccnc(C#N)c4)c3c2)c1 [Example 39, (E)-N-(3-(3-(2-cyanopyridin-4-yl)-1H-pyrrolo-[2,3-b]pyridin-5-yl)-5-methoxy-phenyl)-4-(dimethylamino)-but-2-enamide]
4 | ≤ 100 | ≤ 1000 | COc1cc(NC(=O)/C=C/CN(C)C)cc(-c2cnc3[nH]cc(-c4ccnc(F)c4)c3c2)c1 [Example 38, (E)-4-(dimethyl-amino)-N-(3-(3-(2-fluoropyridin-4-yl)-1H-pyrrolo-[2,3-b]pyridin-5-yl)-5-methoxy-phenyl)but-2-enamide]
5 | ≤ 100 | ≤ 1000 | COc1cc(-c2c[nH]c3ncc(-c4cncc(NC(=O)/C=C/CN(C)C)c4)cc23)ccn1 [Example 71, (E)-4-(dimethyl-amino)-N-(5-(3-(2-methoxypyridin-4-yl)-1H-pyrrolo[2,3-b]pyridin-5-yl)-pyridin-3-yl)but-2-enamide]
6 | ≤ 1000 | 1000 to 5000 | CN(C)C/C=C/C(=O)Nc1cc(-c2cnc3[nH]cc(-c4ccnc5[nH]ccc45)c3c2)cc(C(F)(F)F)c1 [Example 54, (E)-N-(3-(1H,1′H-[3,4′-bipyrrolo-[2,3-b]pyridin]-5-yl)-5-(trifluoro-methyl)phenyl)-4-(dimethylamino)-but-2-enamide]
7 | ≤ 100 | > 5000 | CN(C)C/C=C/C(=O)Nc1cccc(-c2cnc3[nH]cc(-c4cncc(C#N)c4)c3c2)c1 [Example 11, (E)-N-(3-(3-(5-cyanopyridin-3-yl)-1H-pyrrolo-[2,3-b]pyridin-5-yl)phenyl)-4-(dimethylamino)-but-2-enamide]
8 | ≤ 100 | > 5000 | C=CC(=O)Nc1cccc(-c2cnc3[nH]cc(-c4cncc(C(N)=O)c4)c3c2)c1 [Example 9, 5-(5-(3-acryl-amidophenyl)-1H-pyrrolo[2,3-b]-pyridin-3-yl)-nicotinamide]
9 | ≤ 100 | ≤ 1000 | C=CC(=O)Nc1cncc(-c2cnc3[nH]cc(-c4ccnc(C#N)c4)c3c2)c1 [Example 34, N-(5-(3-(2-cyano-pyridin-4-yl)-1H-pyrrolo[2,3-b]-pyridin-5-yl)-pyridin-3-yl)-acrylamide]
10 | ≤ 100 | ≤ 1000 | Cc1cc2c(-c3c[nH]c4ncc(-c5cc(NC(=O)/C=C/CN(C)C)cc(C(F)(F)F)c5)cc34)ccnc2[nH]1 [Example 14, (E)-4-(dimethyl-amino)-N-(3-(2′-methyl-1H,1′H-[3,4′-bipyrrolo-[2,3-b]pyridin]-5-yl)-5-(trifluoro-methyl)phenyl)-but-2-enamide]
11 | ≤ 100 | ≤ 1000 | COc1cc(-c2c[nH]c3ncc(-c4cc(NC(=O)/C=C/CN(C)C)cc(C(F)(F)F)c4)cc23)ccn1 [Example 56, (E)-4-(dimethyl-amino)-N-(3-(3-(2-methoxy-pyridin-4-yl)-1H-pyrrolo[2,3-b]-pyridin-5-yl)-5-(trifluoromethyl)-phenyl)but-2-enamide]
12 | ≤ 100 | ≤ 1000 | C=CC(=O)Nc1cccc(-c2cnc3[nH]cc(-c4cncc(NC)c4)c3c2)c1 [Example 24, N-(3-(3-(5-(methylamino)-pyridin-3-yl)-1H-pyrrolo[2,3-b]-pyridin-5-yl)-phenyl)acrylamide]
13 | ≤ 100 | ≤ 1000 | C=CC(=O)Nc1cc(-c2cnc3[nH]cc(-c4ccnc(C)c4)c3c2)cc(C(F)(F)F)c1 [Example 23, N-(3-(3-(2-methyl-pyridin-4-yl)-1H-pyrrolo[2,3-b]-pyridin-5-yl)-5-(trifluoromethyl)-phenyl)acrylamide]
14 | ≤ 100 | ≤ 1000 | CN(C)C/C=C/C(=O)Nc1cc(-c2cnc3[nH]cc(-c4ccncn4)c3c2)cc(C(F)(F)F)c1 [Example 49, (E)-4-(dimethyl-amino)-N-(3-(3-(pyrimidin-4-yl)-1H-pyrrolo[2,3-b]pyridin-5-yl)-5-(trifluoro-methyl)phenyl)-but-2-enamide]
15 | ≤ 100 | ≤ 1000 | C=CC(=O)Nc1cccc(-c2cnc3[nH]cc(-c4ccnc(C#N)c4)c3c2C)c1 [Example 44, N-(3-(3-(2-cyano-pyridin-4-yl)-4-methyl-1H-pyrrolo[2,3-b]-pyridin-5-yl)-phenyl)acrylamide]
16 | ≤ 1000 | > 5000 | C=CC(=O)Nc1cc(-c2cnc3[nH]cc(-c4cccc(Cl)c4)c3c2)cc(C(F)(F)F)c1 [Example 58, N-(3-(3-(3-chloro-phenyl)-1H-pyrrolo[2,3-b]-pyridin-5-yl)-5-(trifluoro-methyl)phenyl)-acrylamide]
17 | ≤ 100 | ≤ 1000 | C=CC(=O)Nc1cc(-c2cnc3[nH]cc(-c4ccnc(C#N)c4)c3c2)cc(C(F)(F)F)c1 [Example 35, N-(3-(3-(2-cyano-pyridin-4-yl)-1H-pyrrolo[2,3-b]-pyridin-5-yl)-5-(trifluoromethyl)-phenyl)acrylamide]
18 | ≤ 100 | ≤ 1000 | CN(C)C/C=C/C(=O)Nc1cncc(-c2cnc3[nH]cc(-c4ccnc(F)c4)c3c2)c1 [Example 45, (E)-4-(dimethyl-amino)-N-(5-(3-(2-fluoropyridin-4-yl)-1H-pyrrolo-[2,3-b]pyridin-5-yl)pyridin-3-yl)-but-2-enamide]
19 | ≤ 100 | > 5000 | CN(C)C/C=C/C(=O)Nc1cccc(-c2cnc3[nH]cc(-c4cncc(C(N)=O)c4)c3c2)c1 [Example 10, (E)-5-(5-(3-(4-(dimethylamino)-but-2-enamido)-phenyl)-1H-pyrrolo[2,3-b]-pyridin-3-yl)-nicotinamide]
20 | ≤ 100 | ≤ 1000 | C=CC(=O)Nc1cc(OC)cc(-c2cnc3[nH]cc(-c4ccnc(NC)n4)c3c2)c1 [Example 41, N-(3-methoxy-5-(3-(2-(methyl-amino)pyrimidin-4-yl)-1H-pyrrolo-[2,3-b]pyridin-5-yl)phenyl)acryl-amide]
21 | ≤ 100 | ≤ 1000 | C=CC(=O)Nc1cc(OC)cc(-c2cnc3[nH]cc(-c4ccnc(OC)c4)c3c2)c1 [Example 26, N-(3-methoxy-5-(3-(2-methoxy-pyridin-4-yl)-1H-pyrrolo[2,3-b]-pyridin-5-yl)-phenyl)acrylamide]
